Experiments:
Test in all cases: selective drug sensitivity score (sDSS, relative to normal bone marrow) (sDSS (score)); higher = more potent and effective on the cell line relative to normal bone marrow cells
Conditions in all cases: 72 h
CCRF-HSB2 = system: CCRF-HSB2
NALL-1 = system: NALL-1
MOLT-14 = system: MOLT-14
KASUMI-2 = system: KASUMI-2
697 = system: 697
COG-LL-319h = system: COG-LL-319h
NALM-6 = system: NALM-6
PF-382 = system: PF-382
REH = system: REH
MN-60 = system: MN-60
P12-ICHIKAWA = system: P12-ICHIKAWA
KARPAS-45 = system: KARPAS-45
COG-LL-355h = system: COG-LL-355h
RCH-ACV = system: RCH-ACV
ALL-SIL = system: ALL-SIL
MHH-CALL-4 = system: MHH-CALL-4
JURKAT = system: JURKAT
CCRF-CEM = system: CCRF-CEM
SEM cells = system: SEM cells
KOPN-8 = system: KOPN-8
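Also: ALL cell lines in 384-well plates, five doses spanning 10,000-fold, each plate scaled between vehicle and 100 µmol/L benzalkonium chloride controls, sDSS an adapted area-under-curve metric.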

Row | SMILES | selective drug sensitivity score (CCRF-HSB2) | selective drug sensitivity score (NALL-1) | selective drug sensitivity score (MOLT-14) | selective drug sensitivity score (KASUMI-2) | selective drug sensitivity score 697 | selective drug sensitivity score (COG-LL-319h) | selective drug sensitivity score (NALM-6) | selective drug sensitivity score (PF-382) | selective drug sensitivity score (REH) | selective drug sensitivity score (MN-60) | selective drug sensitivity score (P12-ICHIKAWA) | selective drug sensitivity score (KARPAS-45) | selective drug sensitivity score (COG-LL-355h) | selective drug sensitivity score (RCH-ACV) | selective drug sensitivity score (ALL-SIL) | selective drug sensitivity score (MHH-CALL-4) | selective drug sensitivity score (JURKAT) | selective drug sensitivity score (CCRF-CEM) | selective drug sensitivity score (SEM cells) | selective drug sensitivity score (KOPN-8)
1 | CN(CC(=O)N(Cc1ccc(C2CCCCC2)cc1)c1ccc(C(=O)O)cc1)S(=O)(=O)c1c(F)c(F)c(F)c(F)c1F [SH-4-54] (top concentration 25000 nM) | -5.04 | -6.84 | -4.34 | -2.84 | -2.64 | -3.04 | -3.34 | -3.74 | -5.04 | -6.54 | -6.04 | -4.24 | -0.54 | -2.24 | -3.84 | -5.44 | -6.14 | -4.54 | -6.14 | -1.94
2 | Cc1cc2c(C(=O)NC[C@H](C)c3ccccc3)c(O)c(O)cc2c(O)c1-c1c(C)cc2c(C(=O)NC[C@H](C)c3ccccc3)c(O)c(O)cc2c1O [Sabutoclax] (top concentration 25000 nM) | 16.3 | -8.22 | 16.8 | 11.3 | 15.9 | 10.8 | 14.3 | 11.1 | 17.5 | 13 | 13.7 | 16.2 | 15.6 | 16.8 | 12.2 | -7.22 | 16.7 | 13.8 | 10.4 | 17.9
3 | CC1=C2C[C@H]3[C@@H](CC[C@@H]4C[C@H](NS(C)(=O)=O)CC[C@@]43C)[C@@H]2CC[C@@]2(C1)O[C@@H]1C[C@H](C)CN[C@H]1[C@H]2C [Saridegib] (top concentration 10000 nM) | 0.24 | -0.26 | 1.04 | 5.04 | 1.24 | -0.06 | -1.16 | 0.34 | -1.16 | -1.16 | -0.06 | 3.44 | -0.96 | 6.64 | -1.16 | 3.14 | -0.56 | -0.46 | -1.16 | -1.16
4 | Cc1cc(F)c(C(=O)Nc2cccc(-c3nncn3C(C)C)n2)cc1-n1cnc(C2CC2)c1 [Selonsertib] (top concentration 1000 nM) | 0 | 0 | 0 | 0 | 0.3 | 0 | 0 | 0 | 0 | 0 | 0 | 0 | 0 | 0.5 | 0 | 0.2 | 0 | 0 | 0 | 0
